Experimental data: patent US9422254B2, “Methoxyacrylate-based fungicide and methods for preparing and using the same” (priority 2008, dated 2016)
Several values for one entry are separate records, joined by “and”; a condition that tells them apart may be missing. Equal values may be shown once.

How the values were obtained:
[1] = system: Mice Polychromatic Erythrocytes; test: Micronucleus Test of Mice Polychromatic Erythrocytes; assay type: in vivo
Method: (§1) The toxicological indexes of the compound were tested following the standard GB15670-1995 “Toxicological test methods of pesticides for registration” by Tongji Medical College, Huazhong University of Science and Technology.

[2] = system: Pepper phytophthora blight (strain NSGP); test: In vivo micro-screening assay; set-up: species or system Phytophthora capsici; conditions: root-irrigation
Text: 3. In Vivo Micro-Screening Assay

[3] = system: Cucumber gray mold (F-109); test: In vivo micro-screening assay
Method: (§2) To further study the fungicidal spectrum of the compound of Formula (I), indoor in vivo micro-screening assay were carried out on cucumber gray mold, cucumber scab, cucumber sclerotinia rot, cucumber brown spot, pepper phytophthora blight, and rice sheath blight.
(§3) Medicament to be tested and medicament of control groups were prepared as needed in a sunny morning. Cucumber gray mold, cucumber scab, cucumber brown spot, cucumber sclerotinia rot, and rice sheath blight were medicated by spray, and after air dry, pathogens of cucumber scab and of cucumber brown spot were inoculated through spraying spore suspension respectively, pathogens of cucumber gray mold, of cucumber sclerotinia rot, and of rice sheath blight were inoculated through lawn foliage. Pepper phytophthora blight was medicated and inoculated by root-irrigation. Subsequently, all seedlings were cultured in wet environment.
(§4) After the disease of control groups were serious, spot area, disease index, and the diseased seedling rate were investigated to calculate the efficacy. Cucumber scab, cucumber brown spot, and pepper phytophthora blight were investigated by grading method. The spot extension area of cucumber gray mold and of rice sheath blight was investigated. The diseased seedling rate of cucumber sclerotinia rot was investigated. Disease index=Σ(amount of infected diseased leaves in a grade×relative value of the grade)×100/(total amount of leaves×9); Diseased seedling rate (%)=(total amount of seedlings−amount of diseased seedlings)/total amount of seedlings×100% Prevention and treatment effect (%)=(disease of control group−disease of experiment group)/disease of control group×100%

Bipolaris sorokiniana = test: microbe, parasite or virus in culture; assay type: cell-based; conditions: read-out: Inhibition rate (%)
bee = test: Acute contact toxicity test on bee; assay type: in vivo
Method: After acute toxicity and Ames test had been finished, environmental toxicity test was conducted following “Guideline for Environmental Safety Evaluation of Chemical Pesticides” of Agriculture Ministry of China by Shenyang Chemical Research Institute/Supervision and Test Center for Pesticide Safety Evaluation and Quality Control.

[4] = system: Botryosphaeria berengeriana; test: microbe, parasite or virus in culture; assay type: cell-based; conditions: read-out: Inhibition rate (%)
[5] = system: Rice sheath blight (strain WK-1); test: In vivo micro-screening assay
Method: as §2
(§5) Cucumber scab strain: HX; cucumber brown spot strain: SDHGHB060509; cucumber sclerotinia rot strain: HGJH; pepper phytophthora blight strain: NSGP; and rice sheath blight strain: WK-1.
as §3, §4

Alternaria solani = test: microbe, parasite or virus in culture; assay type: cell-based; conditions: read-out: Inhibition rate (%)
[6] = system: Cucumber sclerotinia rot (strain HGJH); test: In vivo micro-screening assay
Method: as §2, §5, §3, §4

[7] = system: Cucumber gray mold (SC504002); test: In vivo micro-screening assay
Method: as §2, §3, §4

cucumber downy mildew = test: Field efficacy trial of emulsifier concentrate 1, cucumber downy mildew; assay type: in vivo
Method: To a beaker (1000 mL), 50 g (100% basis) of the compound of Formula (I), 150 g of DMF, and 50 g of acetone were added and stirred for dissolution. To the solution, 25 g of pesticide emulsifier No. 500 and 50 g of Tween 80, 20 g of epoxidized soybean oil, and […] of toluene were added. Thus, the emulsifier concentrate 1 having 5 wt. % of the compound of Formula (I) was obtained and further packed.
On the basis of indoor activity evaluation, field efficacy trials of the compound of Formula (I) on cucumber downy mildew, cucumber powdery mildew, and melon powdery mildew were conducted.

Phytophthora capsici = test: microbe, parasite or virus in culture; assay type: cell-based; conditions: read-out: Inhibition rate (%)
rabbit's skin = test: Skin stimulation test; assay type: in vivo
Method: as §1

Botrytis cinerea = test: microbe, parasite or virus in culture; assay type: cell-based; conditions: read-out: Inhibition rate (%)
Alternaria alternata = test: microbe, parasite or virus in culture; assay type: cell-based; conditions: read-out: Inhibition rate (%)
[8] = 25 mg/L, 5th day after third administration, Average
[9] = 25 mg/L, 5th day after third administration, No. 1-3
[10] = 25 mg/L, 9th day after third administration, Average
[11] = 25 mg/L, 9th day after third administration, No. 1-3
[12] = 25 mg/L, 12th day after second administration, Average
[13] = 25 mg/L, 12th day after second administration, No. 1-3
[14] = 50 mg/L, 5th day after third administration, Average
[15] = 50 mg/L, 5th day after third administration, No. 1-3
[16] = 50 mg/L, 9th day after third administration, Average
[17] = 50 mg/L, 9th day after third administration, No. 1-3
[18] = 50 mg/L, 12th day after second administration, Average
[19] = 50 mg/L, 12th day after second administration, No. 1-3
[20] = 100 mg/L, 5th day after third administration, Average
[21] = 100 mg/L, 5th day after third administration, No. 1-3
[22] = 100 mg/L, 9th day after third administration, Average
[23] = 100 mg/L, 9th day after third administration, No. 1-3
[24] = 100 mg/L, 12th day after second administration, Average

For `CO/C=C(/C(=O)OC)c1ccccc1CSc1nc2cc(OC)ccc2s1` [Compound of Formula (I), (E)-methyl 3-methoxy-2-(2-((5-methoxy-benzothiazol-2-ylthio)methyl)phenyl)acrylate], which “Micronucleus Test of Mice Polychromatic Erythrocytes” value [1] is on record?
The value was “Negative”.

And the “Efficacy (%)” value ([2]; 100 mg/L)?
Its value is 26.22%.

And the “Spot area (mm^2)” value ([2]; 100 mg/L)?
Its value is 25.33 mm^2.

What about the “Efficacy (%)” value ([2]; 500 mg/L) of the same molecule?
Its value is 30.09%.

And the “Spot area (mm^2)” value ([2]; 500 mg/L)?
Its value is 24 mm^2.

And the “Efficacy (%)” value ([3]; 100 mg/L)?
Its value is 92.19%.

And the “Spot area (mm^2)” value ([3]; 100 mg/L)?
Its value is 8.03 mm^2.

What about the “Efficacy (%)” value ([3]; 500 mg/L) of the same molecule?
Its value is 96.43%.

And the “Spot area (mm^2)” value ([3]; 500 mg/L)?
The value was 3.67 mm^2.

And the “prevention and treatment effect” value ([3]; cucumber gray mold, strains not distinguished)?
The value was “good prevention and treatment effect”.

What about the inhibition at 0.3 µg/mL (Bipolaris sorokiniana; 0.3 mg/L) of the same molecule?
The inhibition at 0.3 µg/mL was 18.8%.

And the inhibition at 3 µg/mL (Bipolaris sorokiniana; 3 mg/L)?
The inhibition at 3 µg/mL was 40.6%.

What about the inhibition at 30 µg/mL (Bipolaris sorokiniana; 30 mg/L) of the same molecule?
The inhibition at 30 µg/mL was 43.8%.

What about the “LC50 (48 hrs)” value (bee) of the same molecule?
Its value is “LC50 (48 hrs) > 100 μg a.i./per bee”.

What about the inhibition at 0.3 µg/mL ([4]; 0.3 mg/L) of the same molecule?
The inhibition at 0.3 µg/mL was 44.1%.

What about the inhibition at 3 µg/mL ([4]; 3 mg/L) of the same molecule?
Its inhibition at 3 µg/mL is 49.6%.

And the inhibition at 30 µg/mL ([4]; 30 mg/L)?
Its inhibition at 30 µg/mL is 63.6%.

What about the “prevention and treatment effect” value [5] of the same molecule?
The value was “good prevention and treatment effect”.

And the Disease index ([5]; 100 mg/L)?
Its Disease index is 59.96.

And the “Efficacy (%)” value ([5]; 100 mg/L)?
The value was 61.67%.

What about the Disease index ([5]; 500 mg/L) of the same molecule?
The Disease index was 46.87.

And the “Efficacy (%)” value ([5]; 500 mg/L)?
The value was 70.04%.

What about the inhibition at 0.3 µg/mL (Alternaria solani; 0.3 mg/L) of the same molecule?
Its inhibition at 0.3 µg/mL is 32.4%.

What about the inhibition at 3 µg/mL (Alternaria solani; 3 mg/L) of the same molecule?
The inhibition at 3 µg/mL was 39.2%.

What about the inhibition at 30 µg/mL (Alternaria solani; 30 mg/L) of the same molecule?
The inhibition at 30 µg/mL was 43.9%.

And the “Efficacy (%)” value ([6]; 100 mg/L)?
The value was 16.84%.

And the “Spot area (mm^2)” value ([6]; 100 mg/L)?
The value was 70.08 mm^2.

And the “Efficacy (%)” value ([6]; 500 mg/L)?
Its value is 58.88%.

What about the “Spot area (mm^2)” value ([6]; 500 mg/L) of the same molecule?
Its value is 34.65 mm^2.

And the “Efficacy (%)” value ([7]; 100 mg/L)?
Its value is 88.71%.

What about the “Spot area (mm^2)” value ([7]; 100 mg/L) of the same molecule?
The value was 6.82 mm^2.

What about the “Efficacy (%)” value ([7]; 500 mg/L) of the same molecule?
The value was 90.67%.

And the “Spot area (mm^2)” value ([7]; 500 mg/L)?
Its value is 5.64 mm^2.

What about the Disease index (cucumber downy mildew; [8]) of the same molecule?
Its Disease index is 4.75.

What about the “Efficacy (%)” value (cucumber downy mildew; [8]) of the same molecule?
The value was 58.99%.

And the Disease index (cucumber downy mildew; [9])?
The Disease index was 4.86 and 4.51.

What about the “Efficacy (%)” value (cucumber downy mildew; [9]) of the same molecule?
The value was 57.99% and 60.99%.

What about the Disease index (cucumber downy mildew; [10]) of the same molecule?
Its Disease index is 11.50.

What about the “Efficacy (%)” value (cucumber downy mildew; [10]) of the same molecule?
Its value is 68.89%.

And the Disease index (cucumber downy mildew; [11])?
Its Disease index is 12.04 and 10.42.

What about the “Efficacy (%)” value (cucumber downy mildew; [11]) of the same molecule?
Its value is 67.43% and 71.82%.

What about the Disease index (cucumber downy mildew; [12]) of the same molecule?
Its Disease index is 1.85.

And the “Efficacy (%)” value (cucumber downy mildew; [12])?
Its value is 69.24%.

What about the Disease index (cucumber downy mildew; [13]) of the same molecule?
Its Disease index is 1.74 and 2.08.

And the “Efficacy (%)” value (cucumber downy mildew; [13])?
Its value is 71.16% and 65.39%.

And the Disease index (cucumber downy mildew; [14])?
The Disease index was 3.94.

What about the “Efficacy (%)” value (cucumber downy mildew; [14]) of the same molecule?
The value was 65.99%.

And the Disease index (cucumber downy mildew; [15])?
Its Disease index is 3.47 and 4.51 and 3.82.

And the “Efficacy (%)” value (cucumber downy mildew; [15])?
The value was 69.99% and 60.99% and 66.99%.

What about the Disease index (cucumber downy mildew; [16]) of the same molecule?
The Disease index was 8.72.

And the “Efficacy (%)” value (cucumber downy mildew; [16])?
Its value is 76.41%.

What about the Disease index (cucumber downy mildew; [17]) of the same molecule?
Its Disease index is 10.65 and 7.18 and 8.33.

What about the “Efficacy (%)” value (cucumber downy mildew; [17]) of the same molecule?
Its value is 71.19% and 80.58% and 77.45%.

And the Disease index (cucumber downy mildew; [18])?
Its Disease index is 1.39.

What about the “Efficacy (%)” value (cucumber downy mildew; [18]) of the same molecule?
Its value is 76.93%.

And the Disease index (cucumber downy mildew; [19])?
Its Disease index is 1.04 and 1.74 and 1.39.

And the “Efficacy (%)” value (cucumber downy mildew; [19])?
The value was 82.70% and 71.16% and 76.93%.

What about the Disease index (cucumber downy mildew; [20]) of the same molecule?
Its Disease index is 2.55.

What about the “Efficacy (%)” value (cucumber downy mildew; [20]) of the same molecule?
Its value is 77.99%.

And the Disease index (cucumber downy mildew; [21])?
Its Disease index is 2.08 and 2.43 and 3.13.

What about the “Efficacy (%)” value (cucumber downy mildew; [21]) of the same molecule?
The value was 81.99% and 78.99% and 72.99%.

And the Disease index (cucumber downy mildew; [22])?
Its Disease index is 7.10.

What about the “Efficacy (%)” value (cucumber downy mildew; [22]) of the same molecule?
Its value is 80.79%.

And the Disease index (cucumber downy mildew; [23])?
The Disease index was 8.10 and 7.18 and 6.02.

And the “Efficacy (%)” value (cucumber downy mildew; [23])?
The value was 78.08% and 80.58% and 83.72%.

What about the Disease index (cucumber downy mildew; [24]) of the same molecule?
The Disease index was 1.02.

What about the “Efficacy (%)” value (cucumber downy mildew; [24]) of the same molecule?
The value was 83.04%.

And the “Efficacy (%)” value (cucumber downy mildew; 100 mg/L, 12th day after second administration, No. 1-3)?
The value was 83.71% and 76.93% and 88.46%.

What about the inhibition at 0.3 µg/mL (Phytophthora capsici; 0.3 mg/L) of the same molecule?
Its inhibition at 0.3 µg/mL is 0%.

And the inhibition at 3 µg/mL (Phytophthora capsici; 3 mg/L)?
The inhibition at 3 µg/mL was 23.1%.

And the inhibition at 30 µg/mL (Phytophthora capsici; 30 mg/L)?
Its inhibition at 30 µg/mL is 28.9%.

And the Skin stimulation (rabbit's skin)?
Its Skin stimulation is “No stimulation on rabbit's skin”.

What about the inhibition at 0.3 µg/mL (Botrytis cinerea; 0.3 mg/L) of the same molecule?
The inhibition at 0.3 µg/mL was 42.3%.

What about the inhibition at 3 µg/mL (Botrytis cinerea; 3 mg/L) of the same molecule?
Its inhibition at 3 µg/mL is 42.7%.

And the inhibition at 30 µg/mL (Botrytis cinerea; 30 mg/L)?
The inhibition at 30 µg/mL was 54.9%.

What about the inhibition at 0.3 µg/mL (Alternaria alternata; 0.3 mg/L) of the same molecule?
Its inhibition at 0.3 µg/mL is 37.2%.

What about the inhibition at 3 µg/mL (Alternaria alternata; 3 mg/L) of the same molecule?
The inhibition at 3 µg/mL was 41.8%.

And the inhibition at 30 µg/mL (Alternaria alternata; 30 mg/L)?
Its inhibition at 30 µg/mL is 43.1%.
